Holding throughout (format): cell-based
One assay has as its system Pythium ultimum. Description: Amended agar assay. Also on record: key to % control Pythium ultimum 2 ppm / % control Pythium ultimum 20 ppm: D: no control detected at this concentration; C: up to 50% control; B: from 50 to 99% control; A: a control of greater than 99%, i.e. no detectable colony growth. Conditions: amended PDA agar, % reduction in colony growth vs control plate, 18° C.; for inhibition of growth at 20 ppm / inhibition of growth at 2 ppm: Globisporangium ultimum. On the procedure:
Testing was carried out on potato dextrose agar (PDA) amended with each compound at a test concentration of typically 20 ppm or 2 ppm. Amended agar was poured into three replicate 9 cm petri dishes. Each replicate dish was inoculated in the centre with a 5 mm agar plug taken from the leading edge of a culture aged between 2 and 7 days old; the age of the culture was dependant on the growth rate of the pathogen being tested. The test pathogens were Pythium ultimum and Phytophthora cinnamomi. Plates were incubated at 18° C. and the diameter of each colony measured before growth on the fastest growing plate reached the plate edge. This varied between 2 and 7 days depending on the growth rate of test pathogens. The % reduction in colony growth compared to the control plate was calculated for each pathogen. The results are provided in Table 1, in which D represents no control detected at this concentration; C represents up to 50% control; B from 50 to 99% control; and A represents a control of greater than 99%, i.e. no detectable colony growth.
Alternatively, or in addition, the same assay was conducted at descending test concentrations with 5-fold dilutions typically down to 0.032 ppm though sometimes as low as 0.00026 ppm, and an EC50 (the concentration at which 50% control would be achieved) was determined. The results are provided in Table 1 in which G represents no control detected at 20 ppm, F represents an EC50 of ≥20 ppm and E represents an EC50 of less than 20 ppm.

In assay [1] the test system is Phytophthora cactorum. The experiment in a line: 96 well plate test. Conditions: 96 well plate assay, agar amended to 20, 2, 0.2 and 0.02 ppm, assessed after 2 to 3 days. Also on record: key: G: no control detected at 20 ppm; F: an EC50 of ≥20 ppm; an EC50 of less than 20 ppm. On the procedure:
(§1) Compounds were screened in 96 well plates with 10 compounds per plate. Each compound was screened using agar amended to 20, 2, 0.2 and 0.02 ppm, with proline at 50 and 10 ppm and 0.2% DMSO used as controls. Each test concentration and standard was replicated twice on a plate. Compounds were screened against Phytophthora cactorum. The agar used in the test is a 1% potato dextrose agar. 1000 spores/mL agar were added to the appropriate agar. A ×10 stock solution in 2% DMSO was produced for each dose i.e. 200, 20, 2 and 0.2 ppm, and 10 μl of this added to the appropriate wells on the plate. An equivalent amount of 2% DMSO and proline stock at 500 and 100 ppm were added for the controls. To each well 90 μl of the appropriate agar spore suspension was added to give the required final well concentrations. Plates were incubated at room temperature (18° C.) and assessed after 2 to 3 days. The amount of pathogen growth in each well was compared to the DMSO controls and an EC50 concentration was calculated. The results are provided in Table 1 in which H represents no control detected at 20 ppm, G represents no control detected at 2 ppm (where the highest test concentration in the assay was 2 ppm), F represents an EC50 of ≥20 ppm, E represents an EC50 of less than 20 ppm.

Assay [2] deals with Phytophthora cactorum. The experiment in a line: 96 well plate test. The following applies: 96 well plate assay, agar amended to 20, 2, 0.2 and 0.02 ppm, assessed after 2 to 3 days, read-out: EC50 Phytophthora spp. (Phytophthora cactorum). As for the experimental part:
as §1

From patent publication US11241013B2, “Benzimidazole compounds as agricultural chemicals” (REDAG CROP PROTECTION LTD, priority 2017, dated 2022) come the findings set out here.

Take `Cn1nnnc1-n1c(OCc2ncccn2)nc2ccccc21` [Example 2]: in the assay with Pythium ultimum (20 ppm), the “% control Pythium ultimum 20 ppm” value is “D”. Also, the “EC50 Phytophthora spp. (Phytophthora cactorum)” value with Phytophthora cactorum [1] is given as “H”.

As usually defined, the inhibition of growth is the change of the read-out against control, counted positive when it falls. In turn, `Cn1nnnc1-n1c(OCc2cnccn2)nc2ccccc21` [Example 5] yielded an inhibition of growth at 20 ppm in the assay with Pythium ultimum (20 ppm) below 50%. In the assay with Pythium ultimum, the “% control Pythium ultimum 2 ppm” value is “D”. For the same compound, in the assay with Phytophthora cactorum [1], the “EC50 Phytophthora spp. (Phytophthora cactorum)” value is on record as “H”.

As to `Nc1cccc(COc2nc3ccccc3n2-c2ncncc2Cl)n1` [Example 9], the inhibition of growth at 2 ppm with Pythium ultimum was below 50%. Also, the “EC50 Phytophthora spp. (Phytophthora cactorum)” value in the assay on Phytophthora cactorum [1] was “H”.

Compound `COCCCOc1ccnc(COc2nc3ccccc3n2-c2nnnn2C)c1C` [Example 15] showed an inhibition of growth at 2 ppm with Pythium ultimum below 50%. The inhibition of growth at 20 ppm with Pythium ultimum (20 ppm) is above 99%. Moreover, in the assay with Phytophthora cactorum [1], the “EC50 Phytophthora spp. (Phytophthora cactorum)” value is listed as “H”.

Take `Cn1nnnc1-n1c(OCc2cccnc2)nc2ccccc21` [Example 18]: the inhibition of growth at 2 ppm in the assay with Pythium ultimum is below 50%. The “EC50 Phytophthora spp. (Phytophthora cactorum)” value with Phytophthora cactorum [1] was “H”.

Compound `Cn1nnnc1-n1c(OCc2ccncc2)nc2ccccc21` [Example 19] gave an inhibition of growth at 2 ppm with Pythium ultimum below 50%. The “EC50 Phytophthora spp. (Phytophthora cactorum)” value in the assay with Phytophthora cactorum [1] is “H”.

For `Cn1nnnc1-n1c(OCc2cccnn2)nc2ccccc21` [Example 21], the inhibition of growth at 20 ppm in the assay with Pythium ultimum (20 ppm) fell in the range of 50 to 99%. Besides, the “% control Pythium ultimum 2 ppm” value in the assay on Pythium ultimum is “D”. Moreover, the “EC50 Phytophthora spp. (Phytophthora cactorum)” value with Phytophthora cactorum [1] is listed as “H”.

The term EC50 denotes the concentration that produces a half-maximal response. With `Cn1nnnc1-n1c(OCc2cccc(CO)n2)nc2c(Cl)cccc21` [Example 71], the “% control Pythium ultimum 2 ppm” value in the assay on Pythium ultimum is “D”. The EC50 in the assay on Phytophthora cactorum [2] was at least 20 µg/mL.

Take `Cn1nnnc1-n1c(OCc2cccc(NCCc3ccccc3)n2)nc2c(Cl)cccc21` [Example 73]: the inhibition of growth at 2 ppm in the assay on Pythium ultimum is above 99%. Further, the EC50 in the assay on Phytophthora cactorum [2] was below 20 µg/mL.

Take `Cn1nnnc1-n1c(OCc2cccc(NCCOc3ccccc3)n2)nc2c(Cl)cccc21` [Example 74]: the inhibition of growth at 2 ppm in the assay with Pythium ultimum was above 99%. Moreover, the EC50 in the assay with Phytophthora cactorum [2] was below 20 µg/mL.

Compound `Cn1nnnc1-n1c(OCc2cc(N3CCOCC3)ccn2)nc2c(Cl)cccc21` [Example 75] returned an inhibition of growth at 2 ppm with Pythium ultimum of 50 to 99%. Also, the EC50 in the assay on Phytophthora cactorum [2] was at least 20 µg/mL.

As for `CCOc1ccnc(COc2nc3ccccc3n2-c2nnnn2C)c1` [Example 76], the inhibition of growth at 2 ppm with Pythium ultimum was above 99%. Moreover, the EC50 with Phytophthora cactorum [2] was at least 20 µg/mL.

`CCCOc1ccnc(COc2nc3ccccc3n2-c2nnnn2C)c1` [Example 77]: in the assay on Pythium ultimum, the inhibition of growth at 2 ppm was above 99%. In addition, the EC50 in the assay with Phytophthora cactorum [2] was below 20 µg/mL.

As for `COc1cc(F)cc2c1nc(OCc1ccccn1)n2-c1nnnn1C` [Example 78], in the assay on Pythium ultimum, the inhibition of growth at 2 ppm was in the range of 50 to 99%. Moreover, in the assay on Phytophthora cactorum [2], the EC50 is below 20 µg/mL.

`Cn1nnnc1-n1c(OCc2cccc(NCC3CCCC3)n2)nc2ccccc21` [Example 80] displayed an inhibition of growth at 2 ppm in the assay with Pythium ultimum above 99%. Besides, the EC50 in the assay on Phytophthora cactorum [2] is below 20 µg/mL.

`Cn1nnnc1-n1c(OCc2cccc(NC3CCCC3)n2)nc2ccccc21` [Example 81] had an inhibition of growth at 2 ppm in the assay with Pythium ultimum above 99%. The EC50 with Phytophthora cactorum [2] is below 20 µg/mL.

For `CCC(C)Nc1cccc(COc2nc3ccccc3n2-c2nnnn2C)n1` (stereo not drawn) [Example 82], the inhibition of growth at 2 ppm with Pythium ultimum is above 99%. Further, the EC50 in the assay with Phytophthora cactorum [2] was below 20 µg/mL.

Take `Cn1nnnc1-n1c(OCc2cccc(NCCC(F)(F)F)n2)nc2ccccc21` [Example 83]: in the assay on Pythium ultimum, the inhibition of growth at 2 ppm was above 99%. Besides, the EC50 with Phytophthora cactorum [2] is below 20 µg/mL.

Take `Cn1nnnc1-n1c(OCc2cccc(NCc3ccc(Cl)cc3)n2)nc2ccccc21` [Example 84]: the inhibition of growth at 2 ppm with Pythium ultimum was above 99%. Also, the EC50 in the assay on Phytophthora cactorum [2] was below 20 µg/mL.

On to `Cn1nnnc1-n1c(OCc2cccc(NCc3cccc(Cl)c3)n2)nc2ccccc21` [Example 85], for which the inhibition of growth at 2 ppm in the assay with Pythium ultimum was above 99%. Moreover, the EC50 in the assay with Phytophthora cactorum [2] was below 20 µg/mL.

As to `Cn1nnnc1-n1c(OCc2cccc(NCc3ccc(F)cc3)n2)nc2ccccc21` [Example 86], the inhibition of growth at 2 ppm in the assay on Pythium ultimum is above 99%. The EC50 in the assay with Phytophthora cactorum [2] is below 20 µg/mL.

For `Cn1nnnc1-n1c(OCc2cccc(NCC3CC3)n2)nc2c(Cl)cccc21` [Example 87], the inhibition of growth at 2 ppm in the assay on Pythium ultimum is above 99%. In addition, in the assay on Phytophthora cactorum [2], the EC50 was below 20 µg/mL.

For the compound `CCCNc1cccc(COc2nc3c(Cl)cccc3n2-c2nnnn2C)n1` [Example 88], the inhibition of growth at 2 ppm in the assay on Pythium ultimum is above 99%. For the same compound, the EC50 in the assay with Phytophthora cactorum [2] is below 20 µg/mL.

Compound `Cn1nnnc1-n1c(OCc2cccc(NCc3ccccc3)n2)nc2c(Cl)cccc21` [Example 89] returned an inhibition of growth at 2 ppm in the assay on Pythium ultimum above 99%. The EC50 in the assay with Phytophthora cactorum [2] is below 20 µg/mL.

Compound `CC(C)CCNc1cccc(COc2nc3c(Cl)cccc3n2-c2nnnn2C)n1` [Example 90] registered an inhibition of growth at 2 ppm with Pythium ultimum above 99%. For the same compound, the EC50 in the assay with Phytophthora cactorum [2] is below 20 µg/mL.

The compound `Cn1nnnc1-n1c(OCc2cccc(NCC3CC3)n2)nc2c(F)cccc21` [Example 91] came in with an inhibition of growth at 2 ppm in the assay on Pythium ultimum above 99%. For the same compound, the EC50 in the assay with Phytophthora cactorum [2] was below 20 µg/mL.

Consider `Cn1nnnc1-n1c(OCc2cccc(NCc3ccccc3Cl)n2)nc2ccccc21` [Example 92], for which the inhibition of growth at 2 ppm with Pythium ultimum was above 99%. The EC50 with Phytophthora cactorum [2] was below 20 µg/mL.

`Cn1nnnc1-n1c(OCc2cccc(NCc3cccc(C#N)c3)n2)nc2ccccc21` [Example 93] displayed an inhibition of growth at 2 ppm with Pythium ultimum above 99%. In addition, the EC50 with Phytophthora cactorum [2] is below 20 µg/mL.

Turning to `COc1cccc(CNc2cccc(COc3nc4ccccc4n3-c3nnnn3C)n2)c1` [Example 94], the inhibition of growth at 2 ppm with Pythium ultimum was above 99%. Further, the EC50 in the assay on Phytophthora cactorum [2] was below 20 µg/mL.

In the assay with Pythium ultimum, `Cc1cccc(CNc2cccc(COc3nc4ccccc4n3-c3nnnn3C)n2)c1` [Example 95] showed an inhibition of growth at 2 ppm above 99%. In addition, in the assay on Phytophthora cactorum [2], the EC50 was below 20 µg/mL.

`Cn1nnnc1-n1c(OCc2cccc(NCc3cccc(OC(F)(F)F)c3)n2)nc2ccccc21` [Example 96] gave an inhibition of growth at 2 ppm with Pythium ultimum above 99%. Also, the EC50 in the assay with Phytophthora cactorum [2] was below 20 µg/mL.

The compound `Cn1nnnc1-n1c(OCc2cccc(NCc3cccc(C(F)(F)F)c3)n2)nc2ccccc21` [Example 97] had an inhibition of growth at 2 ppm with Pythium ultimum above 99%. Further, the EC50 in the assay with Phytophthora cactorum [2] was below 20 µg/mL.

With `CCCCNc1cccc(COc2nc3c(Cl)cccc3n2-c2nnnn2C)n1` [Example 98], the inhibition of growth at 2 ppm in the assay on Pythium ultimum is above 99%. For the same compound, the EC50 in the assay on Phytophthora cactorum [2] is below 20 µg/mL.

As for `CCCNc1cccc(COc2nc3c(Br)cccc3n2-c2nnnn2C)n1` [Example 99], in the assay with Pythium ultimum, the inhibition of growth at 2 ppm was above 99%. In the assay on Phytophthora cactorum [2], the EC50 is below 20 µg/mL.

`Cn1nnnc1-n1c(OCc2cccc(NCC3CC3)n2)nc2c(Br)cccc21` [Example 100] displayed an inhibition of growth at 2 ppm in the assay with Pythium ultimum above 99%. In addition, the EC50 in the assay on Phytophthora cactorum [2] is below 20 µg/mL.

Regarding `Cc1cccc(CNc2cccc(COc3nc4c(Cl)cccc4n3-c3nnnn3C)n2)c1` [Example 101], in the assay with Pythium ultimum, the inhibition of growth at 2 ppm is 50 to 99%. In addition, in the assay with Phytophthora cactorum [2], the EC50 is below 20 µg/mL.

For `Cc1cccc(CNc2cccc(COc3nc4c(Br)cccc4n3-c3nnnn3C)n2)c1` [Example 102], the inhibition of growth at 2 ppm in the assay with Pythium ultimum lay in the range of 50 to 99%. For the same compound, in the assay with Phytophthora cactorum [2], the EC50 was below 20 µg/mL.

As for `CC(C)Nc1cccc(COc2nc3c(Cl)cccc3n2-c2nnnn2C)n1` [Example 103], the inhibition of growth at 2 ppm with Pythium ultimum was above 99%. In addition, in the assay on Phytophthora cactorum [2], the EC50 is below 20 µg/mL.

`Cn1nnnc1-n1c(OCc2nc3ccccc3s2)nc2c(Br)cccc21` [Example 104] displayed an inhibition of growth at 2 ppm in the assay with Pythium ultimum above 99%. In addition, the EC50 in the assay with Phytophthora cactorum [2] is below 20 µg/mL.

Regarding `Cn1nnnc1-n1c(OCc2nc3ccccc3n2C)nc2c(Br)cccc21` [Example 105], in the assay with Pythium ultimum, the inhibition of growth at 2 ppm is above 99%. Moreover, the EC50 with Phytophthora cactorum [2] was below 20 µg/mL.

The compound `Cn1nnnc1-n1c(OCc2cccc(N)n2)nc2c(Br)cccc21` [Example 106] gave an inhibition of growth at 2 ppm with Pythium ultimum of 50 to 99%. The EC50 in the assay with Phytophthora cactorum [2] was below 20 µg/mL.

For `Cn1nnnc1-n1c(OCc2cc(N)ccn2)nc2ccccc21` [Example 108, 2-(((1-(1-Methyl-1H-tetrazol-5-yl)-1H-benzo[d]imidazol-2-yl)oxy)methyl)pyridin-4-amine], in the assay on Pythium ultimum, the “% control Pythium ultimum 2 ppm” value is listed as “D”. In addition, the EC50 in the assay on Phytophthora cactorum [2] was at least 20 µg/mL.
